Test results from ChEMBL document CHEMBL1777738, “3-Cyano-6-(5-methyl-3-pyrazoloamino)pyridines: selective Aurora A kinase inhibitors” (Bioorg Med Chem Lett, 2010).

Experiments:
Aurora kinase A = biological target: T1, Aurora kinase A (Homo sapiens, UniProt O14965)
T1 sequence (O14965 whole entry): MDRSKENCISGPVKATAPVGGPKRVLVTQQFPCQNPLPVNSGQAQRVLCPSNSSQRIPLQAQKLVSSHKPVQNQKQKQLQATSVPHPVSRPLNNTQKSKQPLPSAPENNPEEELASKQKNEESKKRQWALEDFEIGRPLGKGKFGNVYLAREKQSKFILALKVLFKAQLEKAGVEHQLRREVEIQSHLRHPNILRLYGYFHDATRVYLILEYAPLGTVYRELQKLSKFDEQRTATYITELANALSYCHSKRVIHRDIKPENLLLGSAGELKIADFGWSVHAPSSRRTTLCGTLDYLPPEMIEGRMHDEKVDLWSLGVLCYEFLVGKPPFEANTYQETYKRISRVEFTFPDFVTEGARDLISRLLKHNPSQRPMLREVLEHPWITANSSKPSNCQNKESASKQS
Description: Inhibition of phosphotransferase activity of recombinant aurora A expressed in HeLa cells

HCT-116 [1] = experiment: Antiproliferative activity against human HCT116 cells; assay type: functional, cell-based
[2] = Intrinsic clearance in human hepatic microsomes; assay type: ADME, Liver, Microsome
Aurora kinase B = Aurora kinase B (Homo sapiens, UniProt Q96GD4); experiment: Inhibition of aurora B
[3] = Cmax in rat at 30 mg/kg, po; assay type: ADME, organism-based; design: dose 30 mg/kg, route oral; conditions: in vivo
[4] = Tmax in rat at 30 mg/kg, po; assay type: ADME, organism-based; design: dose 30 mg/kg, route oral; conditions: in vivo
[5] = Half life in rat at 30 mg/kg, po; assay type: ADME, organism-based; design: dose 30 mg/kg, route oral; conditions: in vivo
[6] = Drug level in rat serum at 30 mg/kg, po after 24 hrs; assay type: ADME, organism-based; design: dose 30 mg/kg, route oral; conditions: read-out: Drug uptake
HCT-116 [7] = experiment: Antitumor activity against human HCT116 cells xenografted in mouse assessed as tumor growth inhibition at 30 mg/kg, po qd for 14 days; assay type: functional; conditions: HCT-116, 336 h
Mus musculus = experiment: Toxicity in human HCT116 cells xenografted mouse assessed as reduction in body weight at 30 mg/kg, po qd for 14 days; assay type: organism-based, HCT-116; design: dose 30 mg/kg, route oral; conditions: in vivo, 336 h
[8] = biological target: Proto-oncogene tyrosine-protein kinase Src (Homo sapiens, UniProt P12931); experiment: Inhibition of c-SRC
[9] = biological target: Tyrosine-protein kinase Fyn (Homo sapiens, UniProt P06241); experiment: Inhibition of Fyn
[10] = biological target: Tyrosine-protein kinase Yes (Homo sapiens, UniProt P07947); experiment: Inhibition of Yes
HCT-116 [11] = experiment: Antitumor activity against human HCT116 cells xenografted in mouse assessed as tumor growth inhibition at 30 mg/kg, ip qd for 14 days
HCT-116 [12] = experiment: Antitumor activity against human HCT116 cells xenografted in mouse assessed as tumor growth inhibition at 100 mg/kg, ip qd for 14 days

Tyrosine-protein kinase Yes, sequence (P07947 whole entry): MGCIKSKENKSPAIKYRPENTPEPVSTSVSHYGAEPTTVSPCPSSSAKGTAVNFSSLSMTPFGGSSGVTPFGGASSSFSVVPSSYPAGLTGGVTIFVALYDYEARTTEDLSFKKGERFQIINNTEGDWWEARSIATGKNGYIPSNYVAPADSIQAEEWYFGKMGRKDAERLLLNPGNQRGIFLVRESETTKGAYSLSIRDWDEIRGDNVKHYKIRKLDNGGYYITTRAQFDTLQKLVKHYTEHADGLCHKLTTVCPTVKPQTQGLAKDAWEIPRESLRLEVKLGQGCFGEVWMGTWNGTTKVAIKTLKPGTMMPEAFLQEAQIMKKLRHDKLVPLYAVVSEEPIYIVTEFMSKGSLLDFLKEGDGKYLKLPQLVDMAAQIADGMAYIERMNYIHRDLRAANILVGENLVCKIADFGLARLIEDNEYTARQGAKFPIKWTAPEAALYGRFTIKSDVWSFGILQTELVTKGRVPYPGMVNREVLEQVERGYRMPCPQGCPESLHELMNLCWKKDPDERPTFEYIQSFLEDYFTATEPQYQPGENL
Proto-oncogene tyrosine-protein kinase Src, sequence (P12931 2-536 limits assumed): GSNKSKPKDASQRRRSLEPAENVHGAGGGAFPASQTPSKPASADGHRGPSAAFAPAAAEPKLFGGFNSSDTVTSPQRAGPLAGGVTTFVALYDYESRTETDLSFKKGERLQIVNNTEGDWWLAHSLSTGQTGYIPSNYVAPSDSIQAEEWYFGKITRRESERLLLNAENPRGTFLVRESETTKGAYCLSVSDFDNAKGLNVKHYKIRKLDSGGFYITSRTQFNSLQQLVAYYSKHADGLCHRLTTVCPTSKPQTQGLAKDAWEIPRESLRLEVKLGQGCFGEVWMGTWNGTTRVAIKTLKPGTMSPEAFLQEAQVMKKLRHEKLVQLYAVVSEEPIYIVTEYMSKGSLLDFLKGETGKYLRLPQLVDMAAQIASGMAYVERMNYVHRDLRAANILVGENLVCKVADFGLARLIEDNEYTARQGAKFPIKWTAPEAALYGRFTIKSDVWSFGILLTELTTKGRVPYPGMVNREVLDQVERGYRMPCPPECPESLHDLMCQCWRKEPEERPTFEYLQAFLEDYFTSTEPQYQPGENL
Tyrosine-protein kinase Fyn, sequence (P06241 whole entry): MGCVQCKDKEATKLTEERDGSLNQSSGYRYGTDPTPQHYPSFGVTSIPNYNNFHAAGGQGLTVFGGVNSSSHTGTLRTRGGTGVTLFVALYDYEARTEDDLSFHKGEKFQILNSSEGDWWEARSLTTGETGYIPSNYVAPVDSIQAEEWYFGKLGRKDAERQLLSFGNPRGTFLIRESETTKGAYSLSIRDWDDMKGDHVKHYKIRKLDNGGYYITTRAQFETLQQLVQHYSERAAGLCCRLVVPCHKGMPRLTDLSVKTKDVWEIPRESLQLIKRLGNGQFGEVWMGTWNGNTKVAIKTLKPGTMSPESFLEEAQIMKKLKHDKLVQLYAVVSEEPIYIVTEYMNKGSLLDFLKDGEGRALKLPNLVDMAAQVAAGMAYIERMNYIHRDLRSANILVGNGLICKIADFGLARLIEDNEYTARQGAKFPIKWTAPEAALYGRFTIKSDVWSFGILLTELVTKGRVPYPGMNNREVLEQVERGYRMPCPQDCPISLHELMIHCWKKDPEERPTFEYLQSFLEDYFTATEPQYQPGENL
Aurora kinase B, sequence (Q96GD4 whole entry): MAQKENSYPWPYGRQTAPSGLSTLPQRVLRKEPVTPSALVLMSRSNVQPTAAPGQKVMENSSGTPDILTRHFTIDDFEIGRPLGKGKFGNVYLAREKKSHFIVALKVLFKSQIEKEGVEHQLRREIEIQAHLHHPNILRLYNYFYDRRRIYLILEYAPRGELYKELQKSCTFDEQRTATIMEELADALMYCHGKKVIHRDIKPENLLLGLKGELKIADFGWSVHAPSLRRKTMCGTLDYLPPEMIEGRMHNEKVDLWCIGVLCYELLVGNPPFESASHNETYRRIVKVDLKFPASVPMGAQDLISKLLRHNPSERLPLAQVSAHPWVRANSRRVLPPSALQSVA

## CCCCCCSc1nc(Nc2cc(C)n[nH]2)cc(C)c1C#N
Aurora kinase A
  Ki: 3.8 nM

## Cc1cc(Nc2cc(C)c(C#N)c(NCCO)n2)[nH]n1
Aurora kinase A
  Ki: 20 nM

## CC(=O)Nc1ccc(Sc2nc(Nc3cc(C)n[nH]3)cc(C)c2C#N)cc1
Aurora kinase A
  Ki: 5.3 nM

## Cc1cc(Nc2cc(C)c(C#N)c(N[C@@H](C)CCCC(C)(C)O)n2)[nH]n1
HCT-116 [1]
  IC50: 52 nM
[2]
  CL: 0.05 mL/min/mg
Aurora kinase A
  Ki: 0.59 nM

## Cc1cc(Nc2cc(-c3ccccc3)c(C#N)c(Sc3ccc(NC(=O)C(C)C)cc3)n2)n[nH]1
Aurora kinase A
  Ki: 310 nM

## Cc1cc(Nc2cc(C)c(C#N)c(SCCCCCCO)n2)[nH]n1
Aurora kinase A
  Ki: 8.5 nM

## Cc1cc(Nc2cc(C)c(C#N)c(NC(C)CCCC(C)(C)O)n2)n[nH]1.Cl (racemic)
Aurora kinase B
  Ki: 101 nM
HCT-116 [1]
  IC50: 115 nM
[3]
  Cmax: 4.93 µM
[4]
  Tmax: 1.2 h
[5]
  half-life: 198 min
[6]
  concentration at 24 h: 52 nM
HCT-116 [7]
  inhibition in vivo at 30 mg/kg: 59%
Mus musculus
  Activity: Non-toxic
[8]
  Ki: 26 nM
[9]
  Ki: 28 nM
[2]
  CL: 0.07 mL/min/mg
[10]
  Ki: 24 nM
Aurora kinase A
  Ki: 1.2 nM

## Cc1cc(Nc2cc(C)c(C#N)c(NCCCCCCO)n2)[nH]n1
Aurora kinase A
  Ki: 4.5 nM

## Cc1cc(Nc2cc(C)c(C#N)c(NCCCCCC(C)(C)O)n2)n[nH]1
Aurora kinase A
  Ki: 2.3 nM

## Cc1cc(Nc2cc(C)c(C#N)c(SCCCCCCN)n2)[nH]n1
Aurora kinase A
  Ki: 28 nM

## Cc1cc(Nc2cc(C)c(C#N)c(SCCCCCC(C)(C)O)n2)[nH]n1
Aurora kinase A
  Ki: 9.7 nM

## Cc1cc(Nc2cc(C)c(C#N)c(N[C@H](C)CCCC(C)(C)O)n2)n[nH]1
[2]
  CL: 0.11 mL/min/mg
Aurora kinase A
  Ki: 66 nM

## Cc1cc(Nc2cc(N3CCN(C)CC3)nc(Sc3ccc(NC(=O)C4CC4)cc3)n2)n[nH]1
HCT-116 [11]
  growth inhibition (GI): 60%
HCT-116 [12]
  growth inhibition (GI): 68%
